These results are taken from patent US9302988B2, “Fluoromethyl-substituted pyrrole carboxamides” (GRÜNENTHAL GMBH, priority 2012, dated 2016).

Structures are written as SMILES. Bounds are passed on as bounds.

In the test the target is T1, Human CaV2.2 channels (Homo sapiens, UniProt Q00975).
T1 construct: expressed in transfected cells
T1 sequence (Q00975 whole entry): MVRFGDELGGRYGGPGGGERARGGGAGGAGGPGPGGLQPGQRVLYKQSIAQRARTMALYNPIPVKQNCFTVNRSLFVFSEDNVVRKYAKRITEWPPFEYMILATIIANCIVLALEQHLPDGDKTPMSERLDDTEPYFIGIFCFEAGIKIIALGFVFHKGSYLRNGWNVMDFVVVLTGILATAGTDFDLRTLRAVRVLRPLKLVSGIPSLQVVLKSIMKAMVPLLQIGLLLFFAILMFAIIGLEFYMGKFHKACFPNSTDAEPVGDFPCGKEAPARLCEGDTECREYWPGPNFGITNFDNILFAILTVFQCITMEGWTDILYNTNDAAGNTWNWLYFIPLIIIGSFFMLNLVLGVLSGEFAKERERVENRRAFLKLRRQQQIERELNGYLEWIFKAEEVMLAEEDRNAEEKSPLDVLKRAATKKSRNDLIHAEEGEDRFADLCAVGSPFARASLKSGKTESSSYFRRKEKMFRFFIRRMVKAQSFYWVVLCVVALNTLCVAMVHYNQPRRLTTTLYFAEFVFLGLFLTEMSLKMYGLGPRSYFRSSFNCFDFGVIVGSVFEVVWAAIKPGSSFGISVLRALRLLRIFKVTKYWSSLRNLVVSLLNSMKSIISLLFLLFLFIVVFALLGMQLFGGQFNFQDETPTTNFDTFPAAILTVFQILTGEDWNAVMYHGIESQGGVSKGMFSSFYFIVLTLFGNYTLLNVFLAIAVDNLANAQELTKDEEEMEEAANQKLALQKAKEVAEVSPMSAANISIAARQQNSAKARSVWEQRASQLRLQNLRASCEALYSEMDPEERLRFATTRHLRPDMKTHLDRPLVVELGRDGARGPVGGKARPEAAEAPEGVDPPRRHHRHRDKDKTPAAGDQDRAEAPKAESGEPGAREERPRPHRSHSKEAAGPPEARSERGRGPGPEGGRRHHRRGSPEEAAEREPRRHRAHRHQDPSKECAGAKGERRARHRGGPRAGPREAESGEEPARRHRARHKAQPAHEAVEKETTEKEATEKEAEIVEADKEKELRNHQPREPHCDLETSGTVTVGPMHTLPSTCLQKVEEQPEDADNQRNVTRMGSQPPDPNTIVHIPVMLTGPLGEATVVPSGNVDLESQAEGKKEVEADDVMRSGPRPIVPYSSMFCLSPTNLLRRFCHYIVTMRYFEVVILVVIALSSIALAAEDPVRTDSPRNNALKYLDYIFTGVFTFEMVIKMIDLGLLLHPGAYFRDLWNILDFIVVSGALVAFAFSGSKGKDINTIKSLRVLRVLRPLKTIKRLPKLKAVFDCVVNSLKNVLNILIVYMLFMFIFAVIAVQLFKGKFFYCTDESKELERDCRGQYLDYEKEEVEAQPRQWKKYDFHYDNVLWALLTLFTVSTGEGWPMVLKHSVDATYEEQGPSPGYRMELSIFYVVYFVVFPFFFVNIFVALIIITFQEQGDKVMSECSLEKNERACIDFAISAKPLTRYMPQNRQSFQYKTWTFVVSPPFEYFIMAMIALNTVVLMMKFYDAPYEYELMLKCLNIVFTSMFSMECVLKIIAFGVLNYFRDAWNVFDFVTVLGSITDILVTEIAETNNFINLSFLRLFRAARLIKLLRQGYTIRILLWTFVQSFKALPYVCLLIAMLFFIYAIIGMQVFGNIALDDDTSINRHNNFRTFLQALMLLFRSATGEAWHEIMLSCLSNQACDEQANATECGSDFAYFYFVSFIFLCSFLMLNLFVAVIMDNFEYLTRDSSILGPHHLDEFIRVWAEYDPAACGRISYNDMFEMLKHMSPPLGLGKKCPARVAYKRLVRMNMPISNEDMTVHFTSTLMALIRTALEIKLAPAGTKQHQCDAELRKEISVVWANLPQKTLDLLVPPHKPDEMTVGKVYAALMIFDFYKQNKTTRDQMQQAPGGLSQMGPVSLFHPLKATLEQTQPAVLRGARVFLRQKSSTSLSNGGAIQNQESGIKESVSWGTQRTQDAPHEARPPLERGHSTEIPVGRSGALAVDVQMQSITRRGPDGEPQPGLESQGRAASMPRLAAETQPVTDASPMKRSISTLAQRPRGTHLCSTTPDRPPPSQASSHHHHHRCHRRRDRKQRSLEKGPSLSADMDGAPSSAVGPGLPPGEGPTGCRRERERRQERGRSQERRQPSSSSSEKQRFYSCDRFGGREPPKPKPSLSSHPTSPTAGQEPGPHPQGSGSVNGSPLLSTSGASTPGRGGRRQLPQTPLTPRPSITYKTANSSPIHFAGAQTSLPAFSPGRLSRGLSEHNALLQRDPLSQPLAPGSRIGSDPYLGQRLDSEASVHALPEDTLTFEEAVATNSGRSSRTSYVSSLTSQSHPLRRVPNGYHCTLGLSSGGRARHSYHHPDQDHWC
T1 sequence (P54289 25-1103, further chain): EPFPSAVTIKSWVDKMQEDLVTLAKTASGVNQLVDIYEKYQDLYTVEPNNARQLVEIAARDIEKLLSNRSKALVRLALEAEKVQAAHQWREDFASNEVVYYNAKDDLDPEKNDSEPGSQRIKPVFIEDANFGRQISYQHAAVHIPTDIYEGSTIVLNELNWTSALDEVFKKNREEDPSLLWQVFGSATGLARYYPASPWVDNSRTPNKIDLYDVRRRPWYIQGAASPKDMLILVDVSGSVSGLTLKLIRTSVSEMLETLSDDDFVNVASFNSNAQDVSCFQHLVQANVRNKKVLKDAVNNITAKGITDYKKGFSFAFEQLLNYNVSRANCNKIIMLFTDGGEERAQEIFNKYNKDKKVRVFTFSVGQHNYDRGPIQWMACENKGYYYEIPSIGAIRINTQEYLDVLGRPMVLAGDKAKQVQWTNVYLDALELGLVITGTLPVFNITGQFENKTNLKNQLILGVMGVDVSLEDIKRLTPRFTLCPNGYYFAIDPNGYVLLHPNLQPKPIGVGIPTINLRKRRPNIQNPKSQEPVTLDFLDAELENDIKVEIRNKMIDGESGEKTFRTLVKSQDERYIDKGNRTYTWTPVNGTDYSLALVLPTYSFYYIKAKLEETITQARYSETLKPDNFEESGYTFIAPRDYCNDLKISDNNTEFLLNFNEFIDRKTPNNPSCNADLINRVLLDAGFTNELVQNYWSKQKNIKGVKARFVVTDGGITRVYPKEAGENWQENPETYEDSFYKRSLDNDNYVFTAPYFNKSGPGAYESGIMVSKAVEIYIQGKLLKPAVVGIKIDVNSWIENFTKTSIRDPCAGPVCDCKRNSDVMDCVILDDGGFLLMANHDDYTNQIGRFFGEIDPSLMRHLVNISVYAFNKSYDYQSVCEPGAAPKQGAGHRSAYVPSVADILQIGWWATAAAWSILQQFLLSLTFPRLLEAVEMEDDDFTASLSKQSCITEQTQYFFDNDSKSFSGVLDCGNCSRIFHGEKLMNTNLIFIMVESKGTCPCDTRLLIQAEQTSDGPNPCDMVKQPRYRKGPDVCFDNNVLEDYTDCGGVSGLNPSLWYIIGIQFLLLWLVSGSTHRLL
T1 sequence (P54284 whole entry, further chain): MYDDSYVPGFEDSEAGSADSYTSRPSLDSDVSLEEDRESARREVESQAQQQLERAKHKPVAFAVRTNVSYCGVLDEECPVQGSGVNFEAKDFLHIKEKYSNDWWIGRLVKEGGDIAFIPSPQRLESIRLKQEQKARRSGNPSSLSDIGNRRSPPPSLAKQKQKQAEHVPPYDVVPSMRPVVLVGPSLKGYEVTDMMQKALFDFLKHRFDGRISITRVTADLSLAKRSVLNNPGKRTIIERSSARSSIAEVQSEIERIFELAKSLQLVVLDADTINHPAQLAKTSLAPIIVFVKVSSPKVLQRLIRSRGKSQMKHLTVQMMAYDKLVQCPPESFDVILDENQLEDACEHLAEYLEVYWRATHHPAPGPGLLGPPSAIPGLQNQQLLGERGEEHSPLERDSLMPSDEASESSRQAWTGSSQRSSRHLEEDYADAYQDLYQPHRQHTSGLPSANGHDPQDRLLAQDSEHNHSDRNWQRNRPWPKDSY
The test can be described thus: Fluorescent assay for CaV2.2 channels using potassium depolarization to induce channel opening (FLIPR, Fluo-4). Particulars: 3 μM test compound, 30 mM KCl, HEK293 cells stably expressing human CaV2.2; read-out: %-Inhib (CaV2.2) @3 μM @30 mM KCl. The class given is cell-based. The essentials: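 Channel block was read as the baseline-normalized peak Ca²⁺ signal (Fluo-4, 480/535 nm) after a high-KCl depolarizing addition (210 mM KCl buffer). Beforehand, compound sat 15 min at 25 °C on HEK293 cells carrying human CaV2.2, α2δ/β subunits and Kir2.3, in pH 7.4 buffer with 30 mM KCl.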
Consider `Cc1c(-c2ccc(Cl)cc2)c(C(=O)N(C)CCS(=O)(=O)C(C)C)n(Cc2ccccc2)c1C(F)(F)F` [SC-130, 1-Benzyl-3-(4-chlorophenyl)-N-[2-(isopropylsulfonyl)-ethyl]-N,4-dimethyl-5-(trifluoromethyl)-1H-pyrrole-2-carboxylic acid amide], for which the inhibition at 3 µM was greater than 95%.

Take `Cc1c(-c2ccc(OCC(F)(F)F)cc2)c(C(=O)N2CCOCC2)n(Cc2ccccc2)c1C(F)(F)F` [SC-263, [1-Benzyl-4-methyl-3-[4-(2,2,2-trifluoro-ethoxy)-phenyl]-5-(trifluoromethyl)-1H-pyrrol-2-yl]-morpholin-4-yl-methanone]: the inhibition at 3 µM lay within 75 to 95%.

As for `Cc1c(-c2ccc(Cl)cc2)c(C(=O)N2CCS(=O)(=O)CC2)n(Cc2ccccc2)c1C(F)(F)F` [SC-26, [1-Benzyl-3-(4-chlorophenyl)-4-methyl-5-(trifluoromethyl)-1H-pyrrol-2-yl]-(1,1-dioxo-[1,4]thiazinan-4-yl)-methanone], the inhibition at 3 µM lay within 75 to 95%.

Regarding `CN(CC(C)(C)C)C(=O)c1c(-c2ccc(Cl)cc2)cc(C(F)(F)F)n1Cc1ccccc1` [SC-02, 1-Benzyl-3-(4-chlorophenyl)-N-(2,2-dimethyl-propyl)-N-methyl-5-(trifluoromethyl)-1H-pyrrole-2-carboxylic acid amide], the inhibition at 3 µM was 75 to 95%.

Take `Cc1cc(CN(C)C(=O)c2c(-c3ccc(Cl)cc3)c(C)c(C(F)(F)F)n2Cc2ccccc2)on1` [SC-140, 1-Benzyl-3-(4-chlorophenyl)-N,4-dimethyl-N-[(3-methyl-isoxazol-5-yl)-methyl]-5-(trifluoromethyl)-1H-pyrrole-2-carboxylic acid amide]: the inhibition at 3 µM was greater than 95%.

Consider `Cc1c(-c2ccc(Cl)c(F)c2)c(C(=O)N(C)C2CCOCC2)n(Cc2ccccc2)c1C(F)(F)F` [SC-245, 1-Benzyl-3-(4-chloro-3-fluoro-phenyl)-N,4-dimethyl-N-tetrahydro-pyran-4-yl-5-(trifluoromethyl)-1H-pyrrole-2-carboxylic acid amide], for which the inhibition at 3 µM was greater than 95%.

On to `CN(CCC1CCCO1)C(=O)c1c(-c2ccc(Cl)cc2)cc(C(F)(F)F)n1Cc1ccccc1` (stereo not drawn) [SC-195, 1-Benzyl-3-(4-chlorophenyl)-N-methyl-N-(2-tetrahydro-furan-2-yl-ethyl)-5-(trifluoromethyl)-1H-pyrrole-2-carboxylic acid amide], for which the inhibition at 3 µM was greater than 95%.

On to `Cc1c(-c2ccc(Cl)cc2)c(C(=O)N(C)CCCS(C)(=O)=O)n(Cc2ccccc2)c1C(F)(F)F` [SC-127, 1-Benzyl-3-(4-chlorophenyl)-N,4-dimethyl-N-(3-methylsulfonyl-propyl)-5-(trifluoromethyl)-1H-pyrrole-2-carboxylic acid amide], for which the inhibition at 3 µM was greater than 95%.

For `Cc1cnc(CN(C)C(=O)c2c(-c3ccc(Cl)cc3)cc(C(F)(F)F)n2Cc2ccccc2)cn1` [SC-215, 1-Benzyl-3-(4-chlorophenyl)-N-methyl-N-[(5-methyl-pyrazin-2-yl)-methyl]-5-(trifluoromethyl)-1H-pyrrole-2-carboxylic acid amide], the inhibition at 3 µM was greater than 95%.

On to `CN(CC(C)(C)O)C(=O)c1c(-c2ccc(Cl)cc2)cc(C(F)(F)F)n1Cc1cccc(Cl)c1` [SC-70, 3-(4-Chlorophenyl)-1-[(3-chlorophenyl)-methyl]-N-(2-hydroxy-2-methyl-propyl)-N-methyl-5-(trifluoromethyl)-1H-pyrrole-2-carboxylic acid amide], for which the inhibition at 3 µM was greater than 95%.

`Cc1c(-c2ccc(Cl)cc2)c(C(=O)N(C)Cc2cnc(N(C)C)nc2)n(Cc2ccccc2)c1C(F)(F)F` [SC-152, 1-Benzyl-3-(4-chlorophenyl)-N-[(2-dimethylamino-pyrimidin-5-yl)-methyl]-N,4-dimethyl-5-(trifluoromethyl)-1H-pyrrole-2-carboxylic acid amide]: the inhibition at 3 µM is greater than 95%.

As for `Cc1c(-c2ccc(Cl)cc2)c(C(=O)N(C)C2CCS(=O)(=O)C2)n(Cc2ccccc2)c1C(F)(F)F` (stereo not drawn) [SC-63, 1-Benzyl-3-(4-chlorophenyl)-N-(1,1-dioxo-thiolan-3-yl)-N,4-dimethyl-5-(trifluoromethyl)-1H-pyrrole-2-carboxylic acid amide], the inhibition at 3 µM was greater than 95%.

Take `CN(CC1CCCCO1)C(=O)c1c(-c2ccc(Cl)cc2)cc(C(F)(F)F)n1Cc1ccccc1` (stereo not drawn) [SC-202, 1-Benzyl-3-(4-chlorophenyl)-N-methyl-N-(tetrahydro-pyran-2-yl-methyl)-5-(trifluoromethyl)-1H-pyrrole-2-carboxylic acid amide]: the inhibition at 3 µM was in the range of 75 to 95%.

Turning to `Cc1c(-c2ccc(C#N)cc2F)c(C(=O)N2CCOCC2)n(Cc2ccccc2)c1C(F)(F)F` [SC-264, 4-[1-Benzyl-4-methyl-2-(morpholine-4-carbonyl)-5-(trifluoromethyl)-1H-pyrrol-3-yl]-3-fluoro-benzonitrile], the inhibition at 3 µM lay in the range of 75 to 95%.

Take `CN(CC(C)(C)S(C)(=O)=O)C(=O)c1c(-c2ccc(Cl)cc2)cc(C(F)(F)F)n1Cc1ccccc1` [SC-92, 1-Benzyl-3-(4-chlorophenyl)-N-methyl-N-(2-methyl-2-methylsulfonyl-propyl)-5-(trifluoromethyl)-1H-pyrrole-2-carboxylic acid amide]: the inhibition at 3 µM is greater than 95%.

For `O=C(c1c(-c2ccc(Cl)cc2)cc(C(F)(F)F)n1Cc1ccccc1)N1CCn2ccnc2C1` [SC-217, [1-Benzyl-3-(4-chlorophenyl)-5-(trifluoromethyl)-1H-pyrrol-2-yl]-(5,6,7,8-tetrahydro-imidazo[1,2-a]pyrazin-7-yl)-methanone], the inhibition at 3 µM is greater than 95%.

As for `Cc1c(-c2ccc(Cl)cc2)c(C(=O)NC2CC2)n(Cc2ccccc2)c1C(F)(F)F` [SC-35, 1-Benzyl-3-(4-chlorophenyl)-N-cyclopropyl-4-methyl-5-(trifluoromethyl)-1H-pyrrole-2-carboxylic acid amide], the inhibition at 3 µM lay within 75 to 95%.

As for `Cc1c(-c2ccc(Cl)cc2)c(C(=O)NCCS(C)(=O)=O)n(Cc2ccccc2)c1C(F)(F)F` [SC-129, 1-Benzyl-3-(4-chlorophenyl)-4-methyl-N-(2-methylsulfonyl-ethyl)-5-(trifluoromethyl)-1H-pyrrole-2-carboxylic acid amide], the inhibition at 3 µM lay within 75 to 95%.

In the case of `Cc1c(-c2ccc(Cl)cc2)c(C(=O)N(C)CC2(C)COC2)n(Cc2ccccc2)c1C(F)(F)F` [SC-60, 1-Benzyl-3-(4-chlorophenyl)-N,4-dimethyl-N-[(3-methyl-oxetan-3-yl)-methyl]-5-(trifluoromethyl)-1H-pyrrole-2-carboxylic acid amide], the inhibition at 3 µM was greater than 95%.

On to `CCS(=O)(=O)CCN(C)C(=O)c1c(-c2ccc(Cl)cc2)c(C)c(C(F)(F)F)n1Cc1ccccc1` [SC-132, 1-Benzyl-3-(4-chlorophenyl)-N-[2-(ethylsulfonyl)-ethyl]-N,4-dimethyl-5-(trifluoromethyl)-1H-pyrrole-2-carboxylic acid amide], for which the inhibition at 3 µM was greater than 95%.

`CN(CC(C)(C)O)C(=O)c1c(-c2ccc(Cl)cc2)cc(C(F)(F)F)n1Cc1ccccc1` [SC-68, 1-Benzyl-3-(4-chlorophenyl)-N-(2-hydroxy-2-methyl-propyl)-N-methyl-5-(trifluoromethyl)-1H-pyrrole-2-carboxylic acid amide]: the inhibition at 3 µM was greater than 95%.
